Source: paper PMC8906844 (Organic & biomolecular chemistry, 2021)

How the values were obtained:
LAR = LAR (Homo sapiens, UniProt P10586); conditions: 22 °C and pH 6.5; originally obtained; cited from earlier work
pKa measurement = format: physicochemical; conditions: weak diprotic acid

LAR, sequence (P10586 30-1907): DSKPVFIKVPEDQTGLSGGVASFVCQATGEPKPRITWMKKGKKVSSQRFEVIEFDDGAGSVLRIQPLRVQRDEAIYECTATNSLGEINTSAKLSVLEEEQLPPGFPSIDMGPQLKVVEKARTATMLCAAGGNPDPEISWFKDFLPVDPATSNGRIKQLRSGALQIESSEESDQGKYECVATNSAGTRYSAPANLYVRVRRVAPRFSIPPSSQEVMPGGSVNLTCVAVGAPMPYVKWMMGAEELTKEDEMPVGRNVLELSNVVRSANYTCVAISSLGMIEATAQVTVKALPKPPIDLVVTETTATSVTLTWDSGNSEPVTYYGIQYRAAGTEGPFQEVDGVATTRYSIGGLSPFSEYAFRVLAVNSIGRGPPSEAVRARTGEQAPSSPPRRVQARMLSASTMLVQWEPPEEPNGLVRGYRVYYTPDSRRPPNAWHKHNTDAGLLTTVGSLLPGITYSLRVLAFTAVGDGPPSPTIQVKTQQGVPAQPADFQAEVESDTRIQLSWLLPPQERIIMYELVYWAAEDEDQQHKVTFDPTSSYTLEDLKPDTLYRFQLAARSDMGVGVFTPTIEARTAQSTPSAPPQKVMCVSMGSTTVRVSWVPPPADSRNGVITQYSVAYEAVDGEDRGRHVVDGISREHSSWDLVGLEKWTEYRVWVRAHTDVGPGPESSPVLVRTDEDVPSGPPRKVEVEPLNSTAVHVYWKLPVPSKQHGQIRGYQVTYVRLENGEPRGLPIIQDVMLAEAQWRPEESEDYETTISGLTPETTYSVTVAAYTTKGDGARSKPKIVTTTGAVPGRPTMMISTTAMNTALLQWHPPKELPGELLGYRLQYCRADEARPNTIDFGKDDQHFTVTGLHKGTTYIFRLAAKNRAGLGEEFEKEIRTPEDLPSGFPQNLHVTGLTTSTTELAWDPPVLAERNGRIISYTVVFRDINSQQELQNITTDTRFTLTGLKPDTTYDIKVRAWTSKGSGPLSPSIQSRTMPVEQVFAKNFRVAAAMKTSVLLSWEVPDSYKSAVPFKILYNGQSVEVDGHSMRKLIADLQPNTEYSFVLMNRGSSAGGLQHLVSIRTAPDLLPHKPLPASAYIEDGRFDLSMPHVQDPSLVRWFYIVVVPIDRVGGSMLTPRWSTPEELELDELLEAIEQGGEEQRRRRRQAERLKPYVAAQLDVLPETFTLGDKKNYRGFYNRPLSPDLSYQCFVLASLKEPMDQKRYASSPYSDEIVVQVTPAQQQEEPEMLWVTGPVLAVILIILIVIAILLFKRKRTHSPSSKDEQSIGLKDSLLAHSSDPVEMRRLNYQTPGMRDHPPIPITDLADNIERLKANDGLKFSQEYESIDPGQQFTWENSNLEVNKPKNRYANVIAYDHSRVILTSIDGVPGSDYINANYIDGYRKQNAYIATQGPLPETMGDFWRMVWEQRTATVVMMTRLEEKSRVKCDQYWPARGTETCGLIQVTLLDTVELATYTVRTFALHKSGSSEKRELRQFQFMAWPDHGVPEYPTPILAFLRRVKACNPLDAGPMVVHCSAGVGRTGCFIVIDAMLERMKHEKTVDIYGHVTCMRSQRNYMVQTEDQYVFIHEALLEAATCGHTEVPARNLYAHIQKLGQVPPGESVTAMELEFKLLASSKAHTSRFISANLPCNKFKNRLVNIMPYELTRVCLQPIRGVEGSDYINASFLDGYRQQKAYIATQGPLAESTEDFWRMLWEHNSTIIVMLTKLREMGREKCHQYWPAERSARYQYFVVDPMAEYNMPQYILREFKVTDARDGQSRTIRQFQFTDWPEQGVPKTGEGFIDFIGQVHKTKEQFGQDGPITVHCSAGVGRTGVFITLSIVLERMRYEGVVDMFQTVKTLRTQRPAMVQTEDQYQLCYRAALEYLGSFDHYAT

CC1(C)Cc2c(O)c(C=O)c3c(c2C1)C(=O)OC(O)C3 (stereo not drawn) [illudalic acid]
t^∞1/2 (LAR): 0.5 min | pKa (pKa measurement; pKa (first), first value): 5.42 | pKa (pKa measurement; pKa (second), second value): 6.6
